According to ChEMBL document CHEMBL1201862, “PubChem BioAssay data set” (2004):
Active and inactive are the calls of the source.

Tests used:
[1] = Luminescence Cell-Based Dose Response HTS to Identify Activators of Luciferase Translation or Activity in H4 […] Cells. [Related pubchem assays: 1829 (Project Summary), 1814 (Primary HTS)]; format: functional
[2] = cytotoxicity in KRAS-transformed pancreatic duct cells, primary screen, cell-based, fluorescence, HTS (AID 431); format: functional; conditions: Homo sapiens;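 note: cell line used: HPDE-C7K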
[3] = molecular target: 14-3-3 protein gamma (Homo sapiens, UniProt P61981); test: modulators of 14-3-3 gamma client binding – dose response (AID 711); format: functional
Sequence of 14-3-3 protein gamma (P61981 whole entry): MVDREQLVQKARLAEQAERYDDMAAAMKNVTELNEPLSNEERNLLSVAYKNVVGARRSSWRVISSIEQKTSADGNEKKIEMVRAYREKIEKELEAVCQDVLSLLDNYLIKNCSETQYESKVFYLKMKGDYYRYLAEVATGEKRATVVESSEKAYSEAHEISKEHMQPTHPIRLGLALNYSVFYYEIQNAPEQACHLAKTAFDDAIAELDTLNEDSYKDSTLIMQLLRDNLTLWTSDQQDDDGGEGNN

[4] = cytotoxicity in HPDE-C7 cells, cell-based, fluorescence, HTS (AID 430); format: functional; conditions: Homo sapiens
[5] = system: H4; test: Luminescence Cell-Based Dose Response HTS to Identify Activators of 5'UTR Stem-Loop Driven Prion Protein mRNA Translation in H4 Neuroglioblastoma Cells. [Related pubchem assays: 1829 (Project Summary), 1814 (Primary HTS)]; format: functional; conditions: Homo sapiens
[6] = molecular target: Neuropeptide Y receptor type 1 (Homo sapiens, UniProt P25929); format: functional;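 note: HEK293 cells with a CNG channel challenged with NPY then isoproterenol; potency as antagonist that reverses NPY suppression of cAMP signal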
Sequence of Neuropeptide Y receptor type 1 (P25929 whole entry): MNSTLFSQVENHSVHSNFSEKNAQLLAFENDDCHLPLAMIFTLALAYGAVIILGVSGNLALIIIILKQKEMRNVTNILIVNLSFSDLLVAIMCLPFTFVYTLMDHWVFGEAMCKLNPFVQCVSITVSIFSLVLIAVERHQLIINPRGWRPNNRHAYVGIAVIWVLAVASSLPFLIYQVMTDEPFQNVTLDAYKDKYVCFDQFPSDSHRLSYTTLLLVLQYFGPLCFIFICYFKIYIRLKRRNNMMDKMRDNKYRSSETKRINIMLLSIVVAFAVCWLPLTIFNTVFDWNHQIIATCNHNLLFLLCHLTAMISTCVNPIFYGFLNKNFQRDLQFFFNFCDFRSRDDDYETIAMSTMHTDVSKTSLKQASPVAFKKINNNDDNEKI

[7] = molecular target: Neuropeptide Y receptor type 2 (Homo sapiens, UniProt P49146); format: functional, cell-based;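 note: HEK293 cells expressing the receptor and a CNG channel; stimulus was NPY near EC95 followed by isoproterenol to raise cAMP; antagonist potency measured as restoring cAMP signal that NPY suppresses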
Sequence of Neuropeptide Y receptor type 2 (P49146 whole entry): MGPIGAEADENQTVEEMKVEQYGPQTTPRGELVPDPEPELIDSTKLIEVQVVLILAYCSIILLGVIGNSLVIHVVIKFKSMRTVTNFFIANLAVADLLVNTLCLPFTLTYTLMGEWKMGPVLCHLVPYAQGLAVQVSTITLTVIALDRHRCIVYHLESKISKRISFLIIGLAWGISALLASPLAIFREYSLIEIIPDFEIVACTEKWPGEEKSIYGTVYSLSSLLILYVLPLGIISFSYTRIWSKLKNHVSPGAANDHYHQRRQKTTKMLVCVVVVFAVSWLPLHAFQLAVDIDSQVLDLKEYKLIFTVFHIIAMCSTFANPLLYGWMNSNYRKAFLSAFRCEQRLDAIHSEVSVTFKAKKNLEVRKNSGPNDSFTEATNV

[8] = nonselective inhibitors of cellular cAMP signaling, dose response, counter-screen for MC4R biased antagonist project, cell-based, TR-FRET cAMP detection (AID 602305); format: functional;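 note: U2OS cells stimulated with forskolin near its EC80 as the cAMP inducer; potency is for inhibition of forskolin-stimulated cAMP signaling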
[9] = molecular target: Melanocortin receptor 4 (Homo sapiens, UniProt P32245); test: MC4R antagonist potency on cAMP, dose response, cell-based, TR-FRET, biased antagonists (AID 602298); format: functional;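 note: antagonist potency against agonist-stimulated cAMP production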
Sequence of Melanocortin receptor 4 (P32245 whole entry): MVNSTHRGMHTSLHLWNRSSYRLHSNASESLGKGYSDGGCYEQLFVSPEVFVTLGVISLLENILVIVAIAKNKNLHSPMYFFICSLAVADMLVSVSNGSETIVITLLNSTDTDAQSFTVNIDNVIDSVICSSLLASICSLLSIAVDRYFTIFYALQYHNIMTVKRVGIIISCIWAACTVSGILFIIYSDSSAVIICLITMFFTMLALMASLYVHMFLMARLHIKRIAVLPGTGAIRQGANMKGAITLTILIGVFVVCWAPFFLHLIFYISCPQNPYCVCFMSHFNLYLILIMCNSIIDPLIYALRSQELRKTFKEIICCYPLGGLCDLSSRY

[10] = molecular target: T1, Streptokinase A (Streptococcus pyogenes serotype M1, UniProt P10520); test: Absorbance Microorganism-Based Dose Response Follow up to Identify Inhibitors of Streptokinase Expression. [Related pubchem assays: 1677 (Project Summary), 1915, 1914, 1902 (Retest at Dose), 1900 (Counter Screen), 1662 (Primary HTS)]; format: functional, Streptococcus pyogenes M1 GAS
T1 sequence (P10520 whole entry): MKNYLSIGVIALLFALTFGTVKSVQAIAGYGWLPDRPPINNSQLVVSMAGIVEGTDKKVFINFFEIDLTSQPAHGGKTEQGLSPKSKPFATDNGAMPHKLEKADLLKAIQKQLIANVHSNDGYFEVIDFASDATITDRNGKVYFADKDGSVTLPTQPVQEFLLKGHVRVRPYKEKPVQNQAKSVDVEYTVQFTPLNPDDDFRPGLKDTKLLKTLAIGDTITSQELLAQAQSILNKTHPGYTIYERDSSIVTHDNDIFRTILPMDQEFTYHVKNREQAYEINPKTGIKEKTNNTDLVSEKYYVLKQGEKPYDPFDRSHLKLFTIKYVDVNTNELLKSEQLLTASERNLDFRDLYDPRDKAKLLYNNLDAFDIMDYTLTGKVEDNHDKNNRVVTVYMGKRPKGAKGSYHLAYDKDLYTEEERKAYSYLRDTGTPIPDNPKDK

[11] = system: Streptococcus; test: Streptococcus pyogenes growth inhibition counter-screen, dose response, counter-screen for streptokinase expression inhibitor project, luminescence, BacTiter-Glo, strain UMAA2166 (AID 2477); format: functional, organism-based
[12] = system: INS1; test: beta cell apoptosis inhibitors, cytokine rescue, dose response, luminescence, retest (AID 449756); format: functional, cell-based; conditions: Rattus norvegicus;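 note: cell death triggered by IL-1 beta plus TNF-alpha plus IFN-gamma mixture; protective hits raise ATP signal compared with cytokine alone wells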
[13] = molecular target: G-protein coupled receptor 55 (Homo sapiens, UniProt Q9Y2T6); test: GPR55 antagonists blocking LPI-driven arrestin recruitment, primary screen, imaging, U2OS, beta-arrestin-GFP, LPI agonist (AID 2013); format: functional;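 note: antagonist potency measured as reduced agonist-driven arrestin aggregation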
Sequence of G-protein coupled receptor 55 (Q9Y2T6 whole entry): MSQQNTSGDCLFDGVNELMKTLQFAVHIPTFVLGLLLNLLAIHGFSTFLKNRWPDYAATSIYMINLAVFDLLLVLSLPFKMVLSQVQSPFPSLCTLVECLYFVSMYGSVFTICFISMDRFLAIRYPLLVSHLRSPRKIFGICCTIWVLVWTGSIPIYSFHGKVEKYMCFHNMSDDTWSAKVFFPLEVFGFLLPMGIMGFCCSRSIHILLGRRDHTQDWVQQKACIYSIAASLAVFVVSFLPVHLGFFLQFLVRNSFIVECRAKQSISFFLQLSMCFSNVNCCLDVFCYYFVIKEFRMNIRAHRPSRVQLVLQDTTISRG

[14] = HeLa cell cytotoxicity, dose response, cytotoxicity control for MgcRacGAP inhibitor project (AID 624300); format: functional
[15] = molecular target: Paired box protein Pax-8 (Homo sapiens, UniProt Q06710); test: inhibitors of PAX8-driven TPO luciferase reporter, dose response, RMG-I cells, cherry-pick (AID 687027); format: functional, cell-based;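 note: luciferase reporter driven by Pax8 target thyroperoxidase promoter measured by SteadyGlo luminescence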
Sequence of Paired box protein Pax-8 (Q06710 whole entry): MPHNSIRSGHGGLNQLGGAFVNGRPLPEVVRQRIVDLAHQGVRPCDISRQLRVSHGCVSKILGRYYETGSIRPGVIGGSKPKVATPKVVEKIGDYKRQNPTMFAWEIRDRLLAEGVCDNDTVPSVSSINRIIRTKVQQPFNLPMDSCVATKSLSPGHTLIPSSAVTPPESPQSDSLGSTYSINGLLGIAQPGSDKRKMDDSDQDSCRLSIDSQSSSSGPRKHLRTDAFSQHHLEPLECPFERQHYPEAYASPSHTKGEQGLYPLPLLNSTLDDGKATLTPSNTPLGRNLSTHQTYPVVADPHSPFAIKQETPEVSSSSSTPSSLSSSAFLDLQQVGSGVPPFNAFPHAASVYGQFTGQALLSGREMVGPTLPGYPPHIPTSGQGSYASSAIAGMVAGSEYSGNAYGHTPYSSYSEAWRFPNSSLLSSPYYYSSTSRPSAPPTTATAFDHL

[16] = THP-1 cell cytotoxicity, dose response, cytotoxicity control for non-replicating M. tuberculosis project (AID 489025); format: functional
[17] = Luminescence-based dose response cell-based high throughput screening assay for cytotoxic compounds using the IEC-6 intestinal epithelial cell line. [Related pubchem assays: 1858 (Summary AID.), 1825 (Counterscreen.), 1907 (Confirmation screen.)]; format: functional
[18] = HepG2 cell cytotoxicity, dose response, cytotoxicity control for non-replicating M. tuberculosis project (AID 489018); format: functional; conditions: Mycobacterium tuberculosis
[19] = molecular target: T2, Rac GTPase-activating protein 1 (Homo sapiens, UniProt Q9H0H5); test: MgcRacGAP GTPase-activating activity inhibitors, confirmation, biochemical, ADP Hunter fluorescence, primary and confirmatory (AID 624330); format: functional
T2 sequence (Q9H0H5 whole entry): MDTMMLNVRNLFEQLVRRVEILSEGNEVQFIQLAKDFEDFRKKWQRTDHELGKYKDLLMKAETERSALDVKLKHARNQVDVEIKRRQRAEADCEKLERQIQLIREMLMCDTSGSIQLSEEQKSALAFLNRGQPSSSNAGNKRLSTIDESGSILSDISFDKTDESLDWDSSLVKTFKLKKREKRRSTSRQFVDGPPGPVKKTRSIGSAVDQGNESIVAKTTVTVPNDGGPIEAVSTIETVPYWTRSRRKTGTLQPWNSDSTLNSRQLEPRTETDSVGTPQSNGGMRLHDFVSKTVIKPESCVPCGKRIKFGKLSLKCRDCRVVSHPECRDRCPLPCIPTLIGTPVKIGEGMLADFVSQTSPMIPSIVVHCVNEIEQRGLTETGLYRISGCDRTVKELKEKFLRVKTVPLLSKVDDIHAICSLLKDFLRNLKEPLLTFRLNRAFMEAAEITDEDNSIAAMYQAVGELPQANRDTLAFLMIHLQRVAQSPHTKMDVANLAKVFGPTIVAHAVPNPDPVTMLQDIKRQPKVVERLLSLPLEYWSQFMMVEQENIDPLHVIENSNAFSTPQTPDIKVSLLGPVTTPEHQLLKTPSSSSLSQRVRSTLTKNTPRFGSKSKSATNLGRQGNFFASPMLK

[20] = Fluorescence-based cell-based high throughput dose response assay for inhibitors of the interaction of nucleotide-binding oligomerization domain containing 2 (NOD2) and the receptor-interacting serine-threonine kinase 2 (RIPK2).; format: functional; conditions: Homo sapiens
[21] = molecular target: Photoreceptor-specific nuclear receptor (Homo sapiens, UniProt Q9Y5X4); format: functional, cell-based;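 note: CHO-S cells with Gal4-NCOR and VP16-NR2E3 two-hybrid luciferase reporter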
Sequence of Photoreceptor-specific nuclear receptor (Q9Y5X4 whole entry, the tested form may be a part): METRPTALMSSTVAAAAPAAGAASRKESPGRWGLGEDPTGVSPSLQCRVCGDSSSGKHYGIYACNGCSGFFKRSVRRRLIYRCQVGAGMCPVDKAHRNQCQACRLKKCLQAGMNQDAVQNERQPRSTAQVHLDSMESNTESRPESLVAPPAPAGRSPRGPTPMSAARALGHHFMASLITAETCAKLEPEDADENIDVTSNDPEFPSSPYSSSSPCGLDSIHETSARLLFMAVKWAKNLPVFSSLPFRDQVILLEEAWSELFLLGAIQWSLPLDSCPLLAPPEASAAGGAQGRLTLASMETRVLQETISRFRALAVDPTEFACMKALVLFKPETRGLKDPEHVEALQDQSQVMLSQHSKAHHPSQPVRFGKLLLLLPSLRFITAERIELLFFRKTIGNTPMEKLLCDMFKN

[22] = microbe, parasite or virus in culture; format: functional; conditions: Mycobacterium tuberculosis
[23] = Vero E6 cell cytotoxicity, dose response, cytotoxicity control for non-replicating M. tuberculosis project, secondary assay (AID 492998); format: functional, VeroE6; conditions: Vero C1008
[24] = cells; format: functional
[25] = molecular target: Mitogen-activated protein kinase 10 (Homo sapiens, UniProt P53779); test: Dose response biochemical screening assay for inhibitors of c-Jun N-Terminal Kinase 3 (JNK3). [Related pubchem assays: 746 ]
Sequence of Mitogen-activated protein kinase 10 (P53779 whole entry): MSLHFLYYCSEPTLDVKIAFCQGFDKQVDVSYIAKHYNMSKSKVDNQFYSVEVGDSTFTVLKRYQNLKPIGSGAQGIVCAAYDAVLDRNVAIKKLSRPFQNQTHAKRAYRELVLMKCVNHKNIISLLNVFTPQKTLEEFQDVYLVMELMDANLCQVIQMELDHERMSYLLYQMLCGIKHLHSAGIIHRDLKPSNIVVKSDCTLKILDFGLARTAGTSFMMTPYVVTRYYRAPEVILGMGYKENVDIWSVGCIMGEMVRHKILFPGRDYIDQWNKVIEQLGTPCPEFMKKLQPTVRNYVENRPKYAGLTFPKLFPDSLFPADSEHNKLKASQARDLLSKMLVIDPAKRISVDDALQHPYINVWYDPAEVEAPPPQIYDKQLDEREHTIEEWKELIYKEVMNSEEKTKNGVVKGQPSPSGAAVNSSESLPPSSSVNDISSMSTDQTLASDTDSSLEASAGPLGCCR

[26] = molecular target: Protein-tyrosine kinase 2-beta (Homo sapiens, UniProt Q14289);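 note: potency of inhibitors of PYK2 kinase phosphorylation of poly-GT substrate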
Sequence of Protein-tyrosine kinase 2-beta (Q14289 whole entry): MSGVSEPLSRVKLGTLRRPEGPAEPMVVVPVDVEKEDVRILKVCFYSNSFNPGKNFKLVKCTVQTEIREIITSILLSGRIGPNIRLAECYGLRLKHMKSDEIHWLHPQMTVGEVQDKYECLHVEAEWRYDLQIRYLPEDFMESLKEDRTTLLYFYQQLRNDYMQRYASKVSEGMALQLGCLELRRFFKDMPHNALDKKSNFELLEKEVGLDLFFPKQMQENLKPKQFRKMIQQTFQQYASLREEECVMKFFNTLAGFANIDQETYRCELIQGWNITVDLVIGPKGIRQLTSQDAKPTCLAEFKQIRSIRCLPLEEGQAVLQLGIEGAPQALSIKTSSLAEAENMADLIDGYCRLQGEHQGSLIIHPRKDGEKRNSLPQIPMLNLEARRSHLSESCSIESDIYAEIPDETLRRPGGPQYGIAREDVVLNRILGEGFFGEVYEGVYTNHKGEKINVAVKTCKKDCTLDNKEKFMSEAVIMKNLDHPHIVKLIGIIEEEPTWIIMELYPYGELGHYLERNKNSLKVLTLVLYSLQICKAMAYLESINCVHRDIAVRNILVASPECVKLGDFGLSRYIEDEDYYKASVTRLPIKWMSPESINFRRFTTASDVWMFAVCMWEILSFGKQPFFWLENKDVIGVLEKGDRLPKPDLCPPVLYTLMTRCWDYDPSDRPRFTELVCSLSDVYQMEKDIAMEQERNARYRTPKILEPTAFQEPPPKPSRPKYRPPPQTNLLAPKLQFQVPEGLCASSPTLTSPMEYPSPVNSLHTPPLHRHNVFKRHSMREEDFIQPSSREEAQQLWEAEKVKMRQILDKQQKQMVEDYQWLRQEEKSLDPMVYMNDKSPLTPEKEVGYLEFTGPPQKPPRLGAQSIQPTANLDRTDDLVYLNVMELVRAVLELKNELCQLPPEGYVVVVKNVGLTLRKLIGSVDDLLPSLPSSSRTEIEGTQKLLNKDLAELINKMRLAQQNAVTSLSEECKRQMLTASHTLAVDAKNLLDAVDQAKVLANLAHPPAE

[27] = system: HEK293; test: inhibitors of LMP1-driven NF-kB reporter, dose response, cell-based, HEK293, luciferase, cherry-pick (AID 588343); format: functional; conditions: Homo sapiens
[28] = molecular target: T3, Short transient receptor potential channel 4 (Mus musculus, UniProt Q9QUQ5); test: mouse TRPC4 channel inhibitors, dose response, cell-based, HEK293 TRPC4/mu-opioid, Fluo-4 calcium (AID 434942); format: functional;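 note: potency of inhibitors blocking the TRPC4 calcium response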
T3 sequence (Q9QUQ5 whole entry): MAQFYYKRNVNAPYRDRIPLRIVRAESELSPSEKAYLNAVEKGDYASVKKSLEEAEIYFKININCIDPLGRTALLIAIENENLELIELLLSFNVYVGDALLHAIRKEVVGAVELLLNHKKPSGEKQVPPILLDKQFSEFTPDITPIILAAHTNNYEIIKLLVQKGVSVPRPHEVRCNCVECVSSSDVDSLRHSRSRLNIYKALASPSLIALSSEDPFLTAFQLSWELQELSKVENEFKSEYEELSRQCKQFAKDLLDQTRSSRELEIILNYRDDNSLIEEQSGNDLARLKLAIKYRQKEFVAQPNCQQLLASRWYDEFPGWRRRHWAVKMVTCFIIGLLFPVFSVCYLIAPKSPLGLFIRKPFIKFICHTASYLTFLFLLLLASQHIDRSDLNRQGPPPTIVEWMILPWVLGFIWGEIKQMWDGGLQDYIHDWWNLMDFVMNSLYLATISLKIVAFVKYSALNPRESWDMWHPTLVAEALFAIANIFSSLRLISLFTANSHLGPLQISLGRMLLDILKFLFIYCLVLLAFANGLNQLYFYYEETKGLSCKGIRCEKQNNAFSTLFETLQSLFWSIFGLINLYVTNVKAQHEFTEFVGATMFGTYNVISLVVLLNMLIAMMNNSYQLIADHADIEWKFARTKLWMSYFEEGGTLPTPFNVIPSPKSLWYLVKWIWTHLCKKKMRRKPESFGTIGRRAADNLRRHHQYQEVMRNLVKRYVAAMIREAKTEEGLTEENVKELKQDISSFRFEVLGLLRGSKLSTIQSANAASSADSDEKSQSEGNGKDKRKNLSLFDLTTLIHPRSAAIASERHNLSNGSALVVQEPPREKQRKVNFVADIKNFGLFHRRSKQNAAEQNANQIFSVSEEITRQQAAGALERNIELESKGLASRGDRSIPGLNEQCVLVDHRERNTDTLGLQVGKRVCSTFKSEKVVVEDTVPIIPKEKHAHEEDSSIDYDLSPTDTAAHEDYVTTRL

[29] = molecular target: Dual specificity tyrosine-phosphorylation-regulated kinase 1A (Rattus norvegicus, UniProt Q63470); format: biochemical, Homo sapiens

SMILES: Cc1csc(NC(=O)CSc2nsc(SCC(=O)Nc3nc(C)cs3)c2C#N)n1
- EC50 [1]: 1.86 µM (active)
- EC50 [2]: 11 µM (active)
- IC50 [3]: > 50 µM (not active)
- EC50 [4]: 12.4 µM (active)
- EC50 [5]: > 120 µM (not active)

SMILES: Cc1cccc(NC(S)=NN=C(S)NCc2ccccc2)c1
- IC50 [6]: > 35 µM (not active)
- IC50 [7]: > 35 µM (not active)

SMILES: Cc1ccc(Sc2ccc(NC(=O)c3ccc(F)cc3)cc2C#N)cc1
- IC50 [8]: > 64.6 µM (inactive)
- IC50 [9]: > 64.6 µM (inactive)
- EC50 [10]: > 500 µM (not active)
- EC50 [11]: > 500 µM (not active)

SMILES: CN1C2CCC1/C(=C/c1ccccn1)C(=O)/C2=C\c1ccccn1
- AC50 [12]: 1.59 µM (active)
- IC50 [13]: 3.25 µM (active)
- CC50 [14]: 12.5 µM (active)
- AC50 [15]: 0.852 µM (active)
- CC50 [16]: 0.894 µM (active)
- IC50 [17]: 1.76 µM (active)
- CC50 [18]: 1.49 µM (active)
- IC50 [19]: 62.5 µM (active)
- IC50 [20]: 2.58 µM (active)
- IC50 [21]: 1.73 µM (active)
- CC50 [22]: 1.69 µM (active)
- CC50 [23]: 1.06 µM (active)
- IC50 [24]: 7.83 µM (active)

SMILES: COC(=O)c1cccc2c1-c1ccccc1/C2=N/O
- IC50 [25]: 8.81 µM (active)
- IC50 [26]: 6.71 µM (active)
- AC50 [27]: 28 µM (active)
- EC50 [28]: 2.99 µM (active)
- AC50 [29]: 0.434 µM (active)
